Where “and” joins values, the source holds several entries; their conditions need not be identical. Equal entries are not always repeated.
How the values were obtained:
[1] = target: Glycogen synthase kinase-3 beta (Homo sapiens, UniProt P49841); assay: TR-FRET Assay
Outline: (§1)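 Compound was preincubated 30 min in assay buffer before the kinase reaction, which was quenched with EDTA. Phosphorylation was detected by TR-FRET after adding a solution of 40 nM streptavidin-d2 and 2 nM Tb-labelled anti-pSer641 antibody.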

[2] = target: Glycogen synthase kinase-3 alpha (Homo sapiens, UniProt P49840); assay: TR-FRET Assay
Chain of Glycogen synthase kinase-3 alpha (P49840 whole entry): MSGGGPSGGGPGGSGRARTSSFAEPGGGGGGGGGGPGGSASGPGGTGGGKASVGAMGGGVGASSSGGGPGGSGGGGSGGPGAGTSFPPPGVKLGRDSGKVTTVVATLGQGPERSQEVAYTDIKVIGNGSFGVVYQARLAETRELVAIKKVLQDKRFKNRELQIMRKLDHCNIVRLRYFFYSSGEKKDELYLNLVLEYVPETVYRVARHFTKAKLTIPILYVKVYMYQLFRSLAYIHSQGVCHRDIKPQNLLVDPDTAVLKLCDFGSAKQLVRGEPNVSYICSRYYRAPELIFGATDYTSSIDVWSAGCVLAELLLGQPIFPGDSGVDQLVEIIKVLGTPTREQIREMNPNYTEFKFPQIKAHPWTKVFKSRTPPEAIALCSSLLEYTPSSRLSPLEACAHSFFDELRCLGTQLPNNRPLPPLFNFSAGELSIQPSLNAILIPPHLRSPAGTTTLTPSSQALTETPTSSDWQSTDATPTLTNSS
Outline: as §1

Chain of Glycogen synthase kinase-3 beta (P49841 whole entry): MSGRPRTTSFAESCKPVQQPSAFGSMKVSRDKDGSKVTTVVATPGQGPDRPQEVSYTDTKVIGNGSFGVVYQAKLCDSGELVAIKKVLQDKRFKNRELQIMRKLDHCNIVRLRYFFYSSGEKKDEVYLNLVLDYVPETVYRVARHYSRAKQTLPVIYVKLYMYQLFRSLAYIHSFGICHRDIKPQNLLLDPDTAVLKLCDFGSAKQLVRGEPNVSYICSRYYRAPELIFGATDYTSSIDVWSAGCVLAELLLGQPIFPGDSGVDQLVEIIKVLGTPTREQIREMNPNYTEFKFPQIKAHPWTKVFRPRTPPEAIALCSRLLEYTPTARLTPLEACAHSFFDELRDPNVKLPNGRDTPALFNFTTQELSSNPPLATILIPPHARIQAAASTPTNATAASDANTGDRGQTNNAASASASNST

SMILES | IC50 [1] | IC50 [2]
CC[C@@]1(c2ccccc2)C2=CN=NC2NC2=C1C(=O)[C@H](C)C[C@H]2C (some centres not stated) [US20250313563, Compound 865201] | 100 to 1000 nM | < 100 nM
CC[C@]1(c2ccccc2)C2=CN=NC2NC2=C1C(=O)[C@@H](C)C[C@@H]2C (some centres not stated) [US20250313563, Compound 865202] | > 5000 nM | > 5000 nM
CCC1(c2cccc(C(F)(F)F)c2)C2=CN=NC2NC2=C1C(=O)NCC2 (configuration not stated) [US20250313563, Compound 870263] | > 5000 nM | 100 to 1000 nM
CC[C@]1(c2cccc(N(C)c3ccncc3)c2)C2=CN=NC2NC2=C1C(=O)CC(C)(C)C2 (some centres not stated) [US20250313563, Compound 874260] | 100 to 1000 nM | < 100 nM
CCC1(c2cccc(N(C)c3ccccn3)c2)C2=CN=NC2NC2=C1C(=O)CC(C)(C)C2 (configuration not stated) [US20250313563, Compound 874294] | 100 to 1000 nM | < 100 nM
CCC1(c2cccc(N3CCOCC3)c2)C2=C(CC(C)(C)CC2=O)NC2N=NC(C)=C21 (configuration not stated) [US20250313563, Compound 874312] | < 100 nM | < 100 nM
CCC1(COCc2ccccc2)C2=C(N=NC2)NC2=C1C(=O)CC(C)(C)C2 (configuration not stated) [US20250313563, Compound 874313] | 1000 to 5000 nM | 1000 to 5000 nM
CCC1(c2cccc(N3CCCC3)c2)C2=C(CC(C)(C)CC2=O)NC2N=NC(C)=C21 (configuration not stated) [US20250313563, Compound 874314] | < 100 nM | < 100 nM
CC[C@@]1(c2cccc(-c3ccncc3)c2)C2=CN=NC2NC2=C1C(=O)C[C@H](C)C2 (some centres not stated) [US20250313563, Compound 874316] | 1000 to 5000 nM | 100 to 1000 nM
CC[C@]1(c2cccc(-c3ccncc3)c2)C2=CN=NC2NC2=C1C(=O)C[C@@H](C)C2 (some centres not stated) [US20250313563, Compound 874317] | < 100 nM | < 100 nM
CC[C@]1(c2cccc(-c3ccncc3)c2)C2=CN=NC2NC2=C1C(=O)C[C@H](C)C2 (some centres not stated) [US20250313563, Compound 874318] | 100 to 1000 nM | < 100 nM
C[C@@H]1CCC[C@@]12C1=CN=NC1NC1=C2C(=O)CC(C)(C)C1 (some centres not stated) [US20250313563, Compound 874319] | 1000 to 5000 nM | 1000 to 5000 nM
C[C@H]1CCC[C@]12C1=CN=NC1NC1=C2C(=O)CC(C)(C)C1 (some centres not stated) [US20250313563, Compound 874320] | 1000 to 5000 nM | 1000 to 5000 nM
CC1(C)CC(=O)C2=C(C1)NC1N=NC(CCC(F)(F)F)=C1[C@@]21CCc2c(F)cccc21 (some centres not stated) [US20250313563, Compound 874323] | 1000 to 5000 nM | 1000 to 5000 nM
CC1(C)CC(=O)C2=C(C1)NC1N=NC(CCC(F)(F)F)=C1[C@]21CCc2c(F)cccc21 (some centres not stated) [US20250313563, Compound 874324] | 100 to 1000 nM | 100 to 1000 nM
CC1(C)CC(=O)C2=C(C1)NC1=C(CN=N1)C21CC2(CCCC2)C1 [US20250313563, Compound 874477] | < 100 nM and 1000 to 5000 nM | < 100 nM and 100 to 1000 nM
CC1(C)CC(=O)C2=C(C1)NC1=C(CN=N1)C21CCC1 [US20250313563, Compound 874509] | 100 to 1000 nM | 100 to 1000 nM
CC[C@@]1(c2ccccc2)C2=C(CC(C)(C)CC2=O)NC2N=NC(C(F)F)=C21 (some centres not stated) [US20250313563, Compound 874510] | 100 to 1000 nM | 100 to 1000 nM
CC[C@]1(c2ccccc2)C2=C(CC(C)(C)CC2=O)NC2N=NC(C(F)F)=C21 (some centres not stated) [US20250313563, Compound 874511] | 100 to 1000 nM | < 100 nM

SMILES | IC50 [1] | IC50 [2]
CC1(C)CC(=O)C2=C(C1)NC1=C(CN=N1)C21CC(C(F)(F)F)C1 (configuration not stated) [US20250313563, Compound 874527] | 100 to 1000 nM | < 100 nM
CC1(C)CC(=O)C2=C(C1)NC1=C(CN=N1)C21CCN(CC(F)(F)F)CC1 [US20250313563, Compound 874528] | 100 to 1000 nM | < 100 nM
CC1(C)CC(=O)C2=C(C1)NC1=C(CN=N1)C21CCN(c2ccncn2)CC1 [US20250313563, Compound 874529] | 1000 to 5000 nM | 100 to 1000 nM
CC1(C)CC(=O)C2=C(C1)NC1=C(CN=N1)C21CCN(S(=O)(=O)c2ccccc2)CC1 [US20250313563, Compound 874530] | < 100 nM and 1000 to 5000 nM | < 100 nM and 100 to 1000 nM
C[C@@H]1CCC[C@@]2(C1)C1=C(N=NC1)NC1=C2C(=O)CC(C)(C)C1 [US20250313563, Compound 874532] | < 100 nM | < 100 nM
CC1(C)CC(=O)C2=C(C1)NC1N=NC=C1C21CC2(CCOCC2)C1 (configuration not stated) [US20250313563, Compound 874534] | < 100 nM and 100 to 1000 nM | < 100 nM and 100 to 1000 nM
CC1(C)CC(=O)C2=C(C1)NC1=C(CN=N1)[C@]21CCCOCC1 [US20250313563, Compound 874535] | < 100 nM | < 100 nM
CC1(C)CC(=O)C2=C(C1)NC1=C(CN=N1)[C@@]21CCCOCC1 [US20250313563, Compound 874536] | 1000 to 5000 nM | 100 to 1000 nM
C[C@@H]1CCC[C@]2(C1)C1=C(N=NC1)NC1=C2C(=O)CC(C)(C)C1 [US20250313563, Compound 874537] | 100 to 1000 nM | 100 to 1000 nM
CC1(C)CC(=O)C2=C(C1)NC1=C(CN=N1)C21CCC(c2ccccc2)CC1 (configuration not stated) [US20250313563, Compound 874975] | < 100 nM | < 100 nM
CC[C@@]1(c2cccc(N(C)c3ccccn3)c2)C2=CN=NC2NC2=C1C(=O)CC(C)(C)C2 (some centres not stated) [US20250313563, Compound 875568] | < 100 nM | < 100 nM
CC[C@]1(c2cccc(N(C)c3ccccn3)c2)C2=CN=NC2NC2=C1C(=O)CC(C)(C)C2 (some centres not stated) [US20250313563, Compound 875608] | > 5000 nM | 1000 to 5000 nM
CC1N=NC2=C1C1(CC3(CCC3)C1)C1=C(CC(C)(C)CC1=O)N2 (configuration not stated) [US20250313563, Compound 877295] | > 5000 nM | > 5000 nM
CCC1(c2cccc(NC(C)=O)c2)C2=CN=NC2NC2=C1C(=O)CC(C)(C)C2 (configuration not stated) [US20250313563, Compound 877310] | 100 to 1000 nM | < 100 nM
CCC1(c2cccc(N3CCCCC3)c2)C2=C(CC(C)(C)CC2=O)NC2N=NC(C)=C21 (configuration not stated) [US20250313563, Compound 877311] | < 100 nM | < 100 nM
CC1(C)CC(=O)C2=C(C1)NC1=C(CN=N1)[C@]21CCOC1 [US20250313563, Compound 877313] | 100 to 1000 nM | 100 to 1000 nM
CC1(C)CC(=O)C2=C(C1)NC1=C(CN=N1)[C@@]21CCOC1 [US20250313563, Compound 877314] | 1000 to 5000 nM | 100 to 1000 nM
CC1(C)CC(=O)C2=C(C1)NC1=C(CN=N1)C21CCN(c2ccncc2)CC1 [US20250313563, Compound 880765] | > 5000 nM | > 5000 nM
CC1(C)CC(=O)C2=C(C1)NC1=C(CN=N1)C21CCN(S(C)(=O)=O)CC1 [US20250313563, Compound 880776] | < 100 nM | < 100 nM

SMILES | IC50 [1] | IC50 [2]
CC1(C)CC(=O)C2=C(NC3N=NC=C3C23CCOCC3)[C@H]1F (some centres not stated) [US20250313563, Compound 883833] | 1000 to 5000 nM | 100 to 1000 nM
CC1(C)CC(=O)C2=C(NC3=C(CN=N3)C23CCOCC3)[C@@H]1F [US20250313563, Compound 883834] | 1000 to 5000 nM | 100 to 1000 nM
CC1(C)CC2=C(C(=O)[C@@H]1F)C1(CCOCC1)C1=C(N=NC1)N2 [US20250313563, Compound 883835] | 100 to 1000 nM | 100 to 1000 nM
CC1(C)CC2=C(C(=O)[C@H]1F)C1(CCOCC1)C1=C(N=NC1)N2 [US20250313563, Compound 883836] | 1000 to 5000 nM | 100 to 1000 nM
C[C@H]1CC[C@@]2(C1)C1=C(N=NC1)NC1=C2C(=O)CC(C)(C)C1 [US20250313563, Compound 883840] | 100 to 1000 nM | 100 to 1000 nM
C[C@@H]1CC[C@]2(C1)C1=C(N=NC1)NC1=C2C(=O)CC(C)(C)C1 [US20250313563, Compound 883841] | 100 to 1000 nM | 100 to 1000 nM
CC1(C)CC(=O)C2=C(C1)NC1=C(CN=N1)[C@@]21CCCC(C)(C)C1 [US20250313563, Compound 883846] | 1000 to 5000 nM | 100 to 1000 nM
CCC1(c2cccc(-c3ccnc(OC)c3)c2)C2=CN=NC2NC2=C1C(=O)CC(C)(C)C2 (configuration not stated) [US20250313563, Compound 883850] | 100 to 1000 nM | < 100 nM
CCC1(c2cccc(-c3c(C)nn(C)c3C)c2)C2=CN=NC2NC2=C1C(=O)CC(C)(C)C2 (configuration not stated) [US20250313563, Compound 883851] | < 100 nM | < 100 nM
CCC1(c2cccc(-c3ccnn3C)c2)C2=CN=NC2NC2=C1C(=O)CC(C)(C)C2 (configuration not stated) [US20250313563, Compound 883852] | < 100 nM | < 100 nM
CC1(C)CC(=O)C2=C(C1)NC1=C(CN=N1)C21CC(C)(C)C1 [US20250313563, Compound 883864] | 100 to 1000 nM | < 100 nM
CC1=C2C(N=N1)NC1=C(C(=O)CC(C)(C)C1)C21CCCCC1 (configuration not stated) [US20250313563, Compound 883865] | 100 to 1000 nM | < 100 nM
CCC1(c2ccc(C)cc2)C2=C(CC(C)(C)CC2=O)NC2N=NC(C(F)(F)F)=C21 (configuration not stated) [US20250313563, Compound 883866] | < 100 nM | < 100 nM
CCC1(c2ccccc2)C2=C(N=NC2)NC2=C1C(=O)N(C)CC2 (configuration not stated) [US20250313563, Compound 883867] | > 5000 nM | > 5000 nM
CC[C@]1(c2cccc(C)c2)C2=C(CC(C)(C)CC2=O)NC2N=NC(C(F)(F)F)=C21 (some centres not stated) [US20250313563, Compound 883872] | > 5000 nM | 1000 to 5000 nM
CC[C@]1(c2cccc(N3CCCC3)c2)C2=C(CC(C)(C)CC2=O)NC2N=NC(C)=C21 (some centres not stated) [US20250313563, Compound 883875] | 1000 to 5000 nM | 100 to 1000 nM
CC1(C)CC(=O)C2=C(C1)NC1=C(CN=N1)C21CCN(CC(F)F)CC1 [US20250313563, Compound 883962] | 100 to 1000 nM | 100 to 1000 nM
CC1(C)CC(=O)C2=C(C1)NC1=C(CN=N1)C21CCC(F)(F)CC1 [US20250313563, Compound 883972] | 100 to 1000 nM | < 100 nM
